The values that follow come from paper PMC6042199, “Inhibitory effects against α-glucosidase and α-amylase of the flavonoids-rich extract from Scutellaria baicalensis shoots and interpretation of structure–activity relationship of its eight flavonoids by a refined assign-score method” (Chemistry Central Journal, 2018).

The test system of experiment [1] is yeast α-glucosidase from Saccharomyces cerevisiae. Briefly: α-glucosidase inhibitory effect (pNPG, AUC of absorbance at 405 nm). Format: biochemical. The note with it: for IC50 α-Glucosidase: mean ± SD of three repeated tests, logarithmic regression; for Inhibitory effects α-glucosidase (acarbose equivalents): converted into acarbose equivalents. The protocol: (§1) All solvents (analytical grade) were bought from Beijing Chemical Factory, and purified water was from a mili-Q system (Millipore, Billerica, MA).
α-Glucosidase inhibitory effect was assayed as reported by Zhang et al.. […] Then, 30 μL pNPG solution (2 mM pNPG in 0.1 mM phosphate buffer) was added quickly to initiate the enzyme reaction. Absorbance was monitored at 405 nm every 15 min for 2 h using a microplate reader (Tecan infinite 200, Swiss).

The target in experiment [2] is T1, porcine pancreatic α-amylase (Sus scrofa, UniProt P00690).
T1 construct: purchased Sigma-Aldrich Co. (St. Louis, MO, USA)
T1 sequence (P00690 16-511): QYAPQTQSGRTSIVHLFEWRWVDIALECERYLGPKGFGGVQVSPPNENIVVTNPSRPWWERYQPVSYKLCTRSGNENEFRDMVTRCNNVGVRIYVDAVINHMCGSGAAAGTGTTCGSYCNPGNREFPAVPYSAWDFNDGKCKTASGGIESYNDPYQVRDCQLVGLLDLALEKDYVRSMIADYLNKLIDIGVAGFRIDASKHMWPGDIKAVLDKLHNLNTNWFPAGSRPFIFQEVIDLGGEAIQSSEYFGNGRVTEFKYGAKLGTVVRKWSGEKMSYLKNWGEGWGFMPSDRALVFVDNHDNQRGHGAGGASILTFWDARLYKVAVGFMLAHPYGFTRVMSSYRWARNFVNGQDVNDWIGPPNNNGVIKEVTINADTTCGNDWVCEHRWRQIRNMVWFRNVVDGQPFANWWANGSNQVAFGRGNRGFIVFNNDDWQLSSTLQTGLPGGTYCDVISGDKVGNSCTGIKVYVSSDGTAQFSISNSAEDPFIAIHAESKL
Briefly: α-amylase inhibitory effect (starch, dinitrosalicylic acid, 540 nm). Format: biochemical. As to conditions: for Contribution to the overall enzyme inhibitory effect of the extract, α-amylase: Contribution = [Ei/E0] × C × 100; for Inhibitory effects α-amylase (acarbose equivalents): converted into acarbose equivalents; for IC50: mean ± SD of three repeated tests, logarithmic regression. The protocol:
as §1
After incubation for 20 min at 37 °C, 300 μL starch solution (1%) in sodium phosphate buffer (0.02 M, pH 6.9 with 6 mM NaCl) was added, and the mixture was re-incubated for 20 min, followed by addition of 0.2 mL dinitrosalicylic acid. The new mixture was then boiled for 5 min and cooled to room temperature. Cooled mixture was diluted by adding 10 mL distilled water, and absorbance was measured at 540 nm using a UV–visible spectrophotometer (Shimadzu UV-1700, Japan). […] IC50 values were calculated by the logarithmic regression analysis.

In another experiment the test system is α-glucosidase enzyme. The arrangement: method as in doi:10.1007/978-3-642-73461-8_2. The note with it: cited from earlier work.

In brackets after ≈: the same amount, converted by molar mass.

Regarding `C[C@H]1O[C@H](O[C@H]2[C@H](O)[C@@H](O)[C@@H](O[C@H]3[C@H](O)[C@@H](O)C(O)O[C@@H]3CO)O[C@@H]2CO)[C@H](O)[C@@H](O)[C@@H]1N[C@H]1C=C(CO)[C@@H](O)[C@H](O)[C@H]1O` (stereo partly drawn) [Acarbose, acarbose, reference compound], in experiment [1] (at 2 mg/mL), the “final inhibitory effect against α-glucosidase” value came out at 68.66%. Also, the “IC50 α-Glucosidase” value in experiment [1] worked out at 996.02 ± 21.34 µg/mL (≈ 1540 µM). Also, the inhibition (commonly the change of the read-out against control, counted positive when it falls) at 2000 µg/mL in experiment [2] (read-out: inhibition of α-amylase) came to 69.9%. Also, in the experiment with α-glucosidase enzyme, the “affinity exceeding that of the normal substrate, factor” value was 10^4–10^5.
In the case of `O=C(O)[C@H]1O[C@@H](Oc2cc(O)c3c(=O)cc(-c4ccc(O)cc4)oc3c2)[C@H](O)[C@@H](O)[C@@H]1O` [Apigenin-7-O-G, apigenin-7-O-glucuronide], in experiment [1], the “Inhibitory effects α-glucosidase (acarbose equivalents)” value (shortened to “Inhibitory effects α-glucosidase”) is given as 1.83 ± 0.02 μg acarbose/μg and the “IC50 α-Glucosidase” value was 543.28 ± 11.41 µg/mL (≈ 1220 µM). In experiment [2], the “Contribution to the overall enzyme inhibitory effect of the extract, α-amylase” value is reported as 2.74 ± 0.09%; the “Inhibitory effects α-amylase (acarbose equivalents)” value (“Inhibitory effects α-amylase” below) is listed as 1.04 ± 0.01 μg acarbose/μg; the IC50 (usually the concentration that gives 50% inhibition) was 1470 µM.
For the compound `O=c1cc(-c2ccc(O)cc2)oc2cc(O)cc(O)c12` [Apigenin], in experiment [1], the “Inhibitory effects α-glucosidase” value turned out to be 4.31 ± 0.08 μg acarbose/μg and the “IC50 α-Glucosidase” value was determined as 231.13 ± 5.35 µg/mL (≈ 855 µM).
Consider `O=c1cc(-c2ccccc2)oc2cc(O)c(O)c(O)c12` [Baicalein, baicalein], for which, in experiment [1], the “Inhibitory effects α-glucosidase” value turned out to be 3.58 ± 0.07 μg acarbose/μg and the “IC50 α-Glucosidase” value was determined as 277.94 ± 6.21 µg/mL (≈ 1030 µM). Also, in experiment [2], the “Contribution to the overall enzyme inhibitory effect of the extract, α-amylase” value turned out to be 23.37 ± 0.98%; the “Inhibitory effects α-amylase” value was 2.07 ± 0.02 μg acarbose/μg; the IC50 is 1240 µM.
As to `O=C(O)[C@H]1O[C@@H](Oc2cc3oc(-c4ccccc4)cc(=O)c3c(O)c2O)[C@H](O)[C@@H](O)[C@@H]1O` [Baicalin, baicalin], in experiment [1], the “Inhibitory effects α-glucosidase” value is on record as 1.68 ± 0.02 μg acarbose/μg and the “IC50 α-Glucosidase” value worked out at 591.58 ± 12.21 µg/mL (≈ 1330 µM). In experiment [2], the “Contribution to the overall enzyme inhibitory effect of the extract, α-amylase” value was determined as 4.95 ± 0.13%; the “Inhibitory effects α-amylase” value came to 1.03 ± 0.01 μg acarbose/μg; the IC50 was 1480 µM.
`O=c1cc(-c2ccccc2)oc2cc(O)cc(O)c12` [Chrysin, chrysin]: in experiment [1], the “Inhibitory effects α-glucosidase” value is 2.36 ± 0.03 μg acarbose/μg and the “IC50 α-Glucosidase” value was found to be 422.67 ± 9.37 µg/mL (≈ 1660 µM). In experiment [2], the “Contribution to the overall enzyme inhibitory effect of the extract, α-amylase” value is 6.91 ± 0.21%; the “Inhibitory effects α-amylase” value stood at 1.51 ± 0.02 μg acarbose/μg; the IC50 was 1770 µM.
For `O=C(O)[C@H]1O[C@@H](Oc2cc(O)c3c(=O)cc(-c4ccccc4)oc3c2)[C@H](O)[C@@H](O)[C@@H]1O` [Chrysin-7-O-G, chrysin-7-O-glucuronide], in that order: 1.63 ± 0.01 μg acarbose/μg, 612.13 ± 15.34 µg/mL (≈ 1420 µM), 2.63 ± 0.07%, 0.69 ± 0.01 μg acarbose/μg and 2280 µM.
With `O=C(O)[C@H]1O[C@@H](Oc2cc3oc(-c4ccc(O)cc4)cc(=O)c3c(O)c2O)[C@H](O)[C@@H](O)[C@@H]1O` [Scutellarin, scutellarin], in experiment [1], the “Inhibitory effects α-glucosidase” value stood at 3.18 ± 0.06 μg acarbose/μg and the “IC50 α-Glucosidase” value was 313.25 ± 7.28 µg/mL (≈ 677 µM). Besides, in experiment [2], the “Contribution to the overall enzyme inhibitory effect of the extract, α-amylase” value was 14.80 ± 0.66%; the “Inhibitory effects α-amylase” value was 1.84 ± 0.02 μg acarbose/μg; the IC50 was 799 µM.
